This note sets out measurements from patent publication US20070087064A1, “Composition for preventing and treating climacteric symptoms comprising the extract of sophorae fructus” (DREXGENEBIOTECH CO., LTD., priority 2003, published 2007).

Experiment [1] is described as follows: Calcium concentration in blood plasma of ovari-ectomized rats, OCPC method. The format is in vivo, rat. As to the method:
For removal of ovary, a 12-week old white rat was anesthetized by ether. The rat got a shave on its back by a razor. Oophorectomy was performed after sterilizing the operating area with 70% ethanol. Particularly, skin was cut 2˜3 cm along the spinal column of the abdominal lower-flank region of one side, and then, muscle and peritoneum were incised 1.5 cm to exposure ovary. After ligating oviduct by a silk, the ovary was cut off and peritoneum, muscle and skin were sutured by a silk. The other side ovary was ectomized by the same procedure. Sham operation was performed for a control group, which opened peritoneum but sutured without taking ovary out. A period of recovery was 1 week. Test animals were classified into three groups; a normal group (non-ovari-ectomized group), a control group 1 (sham-operated group) and an ovari-ectomized group. […] Therefore, measuring optical density of the magenta color leads to the quantification of calcium in a reagent. […]

Another experiment concerns Dpd (deoxypyridinoline). As to the kind of experiment: Dpd concentration in blood plasma of ovari-ectomized rats. The format is in vivo, rat. On the procedure:
For removal of ovary, a 12-week old white rat was anesthetized by ether. The rat got a shave on its back by a razor. Oophorectomy was performed after sterilizing the operating area with 70% ethanol. Particularly, skin was cut 2˜3 cm along the spinal column of the abdominal lower-flank region of one side, and then, muscle and peritoneum were incised 1.5 cm to exposure ovary. After ligating oviduct by a silk, the ovary was cut off and peritoneum, muscle and skin were sutured by a silk. The other side ovary was ectomized by the same procedure. Sham operation was performed for a control group, which opened peritoneum but sutured without taking ovary out. A period of recovery was 1 week.
Test animals were classified into three groups; a normal group (non-ovari-ectomized group), a control group 1 (sham-operated group) and an ovari-ectomized group. […]
Dpd concentration in blood plasma obtained above was measured by competitive enzyme immunoassay using a Dpd concentration measuring kit (Pyrilinks-D, Quidel Corporation, USA) in which an anti-Dpd antibody was included. […] After reaction was finished, OD450 was measured. Then, Dpd concentration was calculated by using a calibration curve made to explain the relation between Dpd content and optical density (FIG. 11).
Based on the result of the above Example <5-4>, changes of Dpd concentration after administering each sample for 9 weeks were quantified by the below formula. […]
In order to confim the effects of the extract of Sophorae Fructus of the present invention, Dpd concentrations in groups administered with the extract of Sophorae Fructus of the present invention were calculated by comparing with Dpd concentration in a control group 2 (ovari-ectomized) in which osteoporosis was progressed much. […]

The nature of experiment [2]: Weight changes and weight gaining rate in ovari-ectomized rats. The format is in vivo, rat. As to the method:
As the experimental animals, white female SD (Sprague-Dawley) rats (230˜250 g) were purchased from Hallym Research Institute of Experimental animals (Kyunggido, Korea). The rats were raised at 23±1° C., under 40˜60% humidity and 12-hour light and shade cycle. Feed (solid feed, Hallym Research Institute of Experimental animals, Kyunggido, Korea) and water were given freely, but just water was supplied on the day before drawing blood. For removal of ovary, a 12-week old white rat was anesthetized by ether. The rat got a shave on its back by a razor. Oophorectomy was performed after sterilizing the operating area with 70% ethanol. Particularly, skin was cut 2˜3 cm along the spinal column of the abdominal lower-flank region of one side, and then, muscle and peritoneum were incised 1.5 cm to exposure ovary. After ligating oviduct by a silk, the ovary was cut off and peritoneum, muscle and skin were sutured by a silk. The other side ovary was ectomized by the same procedure. Sham operation was performed for a control group, which opened peritoneum but sutured without taking ovary out. A period of recovery was 1 week. Test animals were classified into three groups; a normal group (non-ovari-ectomized group), a control group 1 (sham-operated group) and an ovari-ectomized group. The ovari-ectomized group was sub-divided into a control group 2, which was not administered with a sample, a 17-beta estradiol treating group (E group), an extract of Sophorae Fructus of Example 1 administering group (R-G group), an enzyme extract of Sophorae Fructus of Example 2 administering group (R-A group), a food composition comprising the extract of Sophorae Fructus of Example 3 administering group (R-P group) and a soybean ex-powder administering group (S-S group) by 10 animals each (Table 1). […] Weights of each group of the above Example <5-2> were measured with an electronic scale, from which weight gaining rate per day was calculated by the below formula. […]

Experiment [3] concerns MG-63 human osteoblast-like cells. The experiment can be described thus: Osteoblast proliferation, MTT method. The format is cell-based. Particulars: MG-63 cells, 72 hours. On the procedure:
MG-63 human osteoblast-like cells were distributed from Korean Cell Line Bank of Seoul National University College of Medicine, Seoul, Korea, which were sub-cultured for fuirther use. The frozen MG-63 human osteoblast-like cells were melted in a 37° C. water bath for 1 minute, followed by centrifugation with 1300 rpm for 5 minutes to eliminate supernatant. The obtained pellet was re-suspended in DMEM supplemented with 10% FBS, which was, then, distributed in a […] culture flask for further culture. The duration of culture was 2 weeks for cell stability. After confirming under a microscope that a monolayer was stably formed, the cells were used for the experiments. In order to investigate the osteoblast proliferation after the treatment of an extract of Sophorae Fructus, MG-63 human osteoblast-like cells of the above Example <4-1> were treated with the Sophorae Fructus extract powder of Example 1 (R-G), the Sophorae Fructus enzyme extract powder of Example 2 (R-A), and the food composition comprising an extract of Sophorae Fructus of Example 3 (R-P), which were cultured for 3 days. The effects of the above extracts on cell proliferation were measured by MTT method. […] After complete mixing, color changes were checked and OD570 was measured using an ELISA plate reader within an hour.

A further experiment relates to TGF-beta. As to the kind of experiment: TGF-beta secretion in osteoblasts, ELISA. It is filed as cell-based, human. The note with it: MG-63 cells. As to the method:
(§1) In order to investigate whether the extract of Sophorae Fructus of the present invention could stimulate the secretion of IGF-1 and TGF-beta in osteoblasts, each sample was treated to MG-63 human osteoblast-like cells by the same method as used in Example <4-4>, and then, ELISA and RT-PCR were performed to measure the secretion and the expression of IGF-1 and TGF-beta. The expression levels of IGF-1 and TGF-beta were represented by a comparative rate (%) to that of a control. ELISA was performed by using ELISA kit (Quantikine, R&D system) according to the provided protocol to investigate the secretion of IGF-1 and TGF-beta. Then, optical density was measured by the same method as used in the Example <4-4>. RT-PCR was also performed by the same method as used in the above Example <4-4>. Each primer used for the RT-PCR was presented below.

Another experiment relates to IGF-1. The experiment can be described thus: IGF-1 secretion in osteoblasts, ELISA. It is filed as cell-based, human. Particulars: MG-63 cells, 10^-4%. As to the method: as §1

As for `C[C@]12CC[C@@H]3c4ccc(O)cc4CC[C@H]3[C@@H]1CC[C@@H]2O` [E, 17-beta estradiol], the “calcium concentration in blood plasma, 10 week” value in experiment [1] (after 9 weeks administration (0.556 g/kg/day oral; estradiol 1 g/kg/day intraperitoneal), mean ± SD) worked out at 17.96 ± 1.334. Further, the “course of calcium concentration in blood plasma after start of administration” value in experiment [1] (from the first week on) is listed as “rapid increase of calcium concentration”. Also, the “Dpd concentration in blood plasma after 9 weeks of administration (10th week)” value in the experiment with Dpd (deoxypyridinoline) (0.556 g/kg/day oral, E group 1 g/kg/day intraperitoneal) is listed as “rapid drop of Dpd concentration”. The “decrease rate of Dpd, regarding the amount of decreased Dpd of E group as 100%” value in the experiment on Dpd (deoxypyridinoline) (9 weeks administration) came out at 100%. Moreover, in the experiment with Dpd (deoxypyridinoline) (negative = decrease of Dpd concentration), the “ΔDpd value (Dpd before administration versus after 9-week administration)” value is listed as “negative”. In addition, the “Weight gaining rate (g/day)” value in experiment [2] (ovari-ectomized SD rats, 12 to 22 weeks old, 0.556 g/kg/day oral, E group 1 g/kg/day intraperitoneal, mean ± SD, * significant p < 0.05) is reported as 1.0095 ± 0.1* g/day. Moreover, in experiment [2] (ovari-ectomized SD rats, after 9 weeks administration (0.556 g/kg/day oral; E group 1 g/kg/day intraperitoneal), mean ± SD), the “Weight (g): Final weight (22 weeks old)” value was 302.4 ± 29.885 g. Moreover, the “weight gaining after removal of ovary” value in experiment [2] (ovari-ectomized rats, versus rapid weight gaining in control group 2) is listed as “slow”. Moreover, in experiment [3] (10^-4 to 10^-12%), the “osteoblast proliferation effect (MTT, OD570)” value is on record as “cell proliferation depended on its concentration”. For the same compound, the “osteoblast proliferation at low concentration versus high concentration” value in experiment [3] (low concentration 10^-10% (estradiol 10^-10% and 10^-12%)) was “proliferation decreased”. In addition, the “TGF-beta concentration (ELISA)” value with TGF-beta (10^-4 to 10^-10%) was “evenly higher TGF-beta concentration”. Besides, the “TGF-beta concentration / secretion promoting activity (ELISA)” value with TGF-beta (minimum concentration 10^-12%) is recorded as “decreased to the similar level to that in a control group”. Also, the “IGF-1 concentration (ELISA), comparison of groups” value in the experiment on IGF-1 is “highest IFG-1 concentration”.
